Our source for the TGI values is PubChem BioAssay (NCI).

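Following 48 hours of exposure in 96-well plates, responses at five concentrations were used to interpolate endpoints linearly. TGI is the concentration that stops growth completely.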

Test systems include BT-549 breast; HT29 colon; NCI-H226 lung; NCI/ADR-RES ovarian; RXF 393 renal; SN12C renal; U251 CNS; UACC-62 melanoma.
Test in all cases: NCI tumour cell line growth inhibition, 48 h

As to `N=C1N=C(N)c2cc3c(cc21)SCCSCCCSCCS3`, the TGI is 31.4 µM in the assay with BT-549 breast; greater than 48.6 µM in the assay with HT29 colon; greater than 73.2 µM in the assay with NCI-H226 lung; greater than 100 µM with NCI/ADR-RES ovarian; 41.3 µM in the assay on RXF 393 renal; 33.2 µM with SN12C renal. Further, the figures for the TGI with U251 CNS and in the assay on UACC-62 melanoma were greater than 50.7 µM and greater than 54.7 µM, respectively.

Take `CCN(CC)C(=S)SNCCc1ccc(S(N)(=O)=O)cc1`: the TGI is 30 µM with BT-549 breast; 27.1 µM with HT29 colon; greater than 84.7 µM in the assay on NCI-H226 lung; 41.6 µM in the assay on NCI/ADR-RES ovarian; 22.1 µM with RXF 393 renal; 27.2 µM in the assay on SN12C renal. In addition, the TGI was 31.8 µM with U251 CNS and greater than 94.1 µM in the assay on UACC-62 melanoma.

As for `O=[N+]([O-])c1cccc2nc3ccccc3c(NCCC[N+]3([O-])CCCCC3)c12`, the TGI is 1.53 µM in the assay on BT-549 breast; 6.37 µM in the assay on HT29 colon; 1.54 µM in the assay on NCI-H226 lung; greater than 100 µM in the assay with NCI/ADR-RES ovarian; 2 µM with RXF 393 renal; 1.55 µM with SN12C renal. Besides, the TGI in the assay with U251 CNS was 1.24 µM; in the assay on UACC-62 melanoma it was 0.805 µM.

With `Cc1ccc(S(=O)(=O)n2cc(-c3cnc(N)c(Br)n3)c3ccccc32)cc1`, the TGI in the assay on BT-549 breast was greater than 100 µM; in the assay with HT29 colon, 9.57 µM; with NCI-H226 lung, greater than 100 µM; in the assay with NCI/ADR-RES ovarian, greater than 25.7 µM; with RXF 393 renal, 5.23 µM; in the assay with SN12C renal, 11.9 µM. Moreover, the TGI in the assay with U251 CNS was greater than 77.5 µM; with UACC-62 melanoma it was greater than 57.2 µM.

`Cc1ccnc(NC(=S)Nc2ccccc2Cl)c1`: the TGI in the assay on BT-549 breast, in the assay on HT29 colon, in the assay with NCI-H226 lung, in the assay with NCI/ADR-RES ovarian, in the assay on RXF 393 renal and with SN12C renal was greater than 100 µM each time. The TGI with U251 CNS and with UACC-62 melanoma was greater than 100 µM throughout.

As to `C[C@H](CC[C@@H](O)C(C)(C)O)[C@H]1CC[C@@]2(C)[C@@H]3CC=C4[C@@H](CC[C@H](OC5OC(CO)C(O)C(O)C5O)C4(C)C)[C@]3(C)C(=O)C[C@]12C` (some centres undefined), the TGI in the assay with BT-549 breast, in the assay on HT29 colon, in the assay with NCI-H226 lung, in the assay with NCI/ADR-RES ovarian, in the assay on RXF 393 renal and in the assay with SN12C renal was greater than 100 µM in each case. For the same compound, the TGI with U251 CNS and with UACC-62 melanoma was greater than 100 µM throughout.

In the case of `N#CC1N(C(=O)c2ccc(F)cc2)c2ccccc2N1C(=O)c1ccc(F)cc1`, the TGI in the assay on BT-549 breast was 77.3 µM; in the assay on HT29 colon, greater than 100 µM; with NCI-H226 lung, greater than 100 µM; in the assay on NCI/ADR-RES ovarian it was 93.5 µM; in the assay on RXF 393 renal, greater than 100 µM; in the assay with SN12C renal, greater than 100 µM. The TGI in the assay with U251 CNS and with UACC-62 melanoma was greater than 100 µM throughout.

For the compound `O=c1[nH]c(=O)n(C2CC(O)C(CO)O2)cc1NN=NCc1ccccc1` (centres undefined), the TGI with BT-549 breast, with HT29 colon, in the assay on NCI-H226 lung, with NCI/ADR-RES ovarian, with RXF 393 renal and in the assay with SN12C renal was greater than 100 µM throughout. Moreover, the TGI in the assay with U251 CNS and with UACC-62 melanoma was greater than 100 µM each time.

In the case of `Sc1nnc(-c2ccccc2Nc2ccccc2-c2nnc(S)n2-c2ccccc2)n1-c1ccccc1`, the TGI with BT-549 breast was greater than 100 µM; with HT29 colon, greater than 100 µM; with NCI-H226 lung it was greater than 100 µM; with NCI/ADR-RES ovarian, greater than 100 µM; in the assay with RXF 393 renal it was greater than 100 µM; in the assay with SN12C renal, 72.9 µM. Moreover, the TGI in the assay with U251 CNS and in the assay with UACC-62 melanoma was greater than 100 µM each time.

`COc1cc2c3c(cc(Cl)nc3c1OC)C(O)(CC(C)=O)C(=O)N2` (centres undefined): the TGI is 30.8 µM in the assay with BT-549 breast; greater than 61.9 µM in the assay with HT29 colon; greater than 57.3 µM with NCI-H226 lung; greater than 63.9 µM in the assay with NCI/ADR-RES ovarian; 30.7 µM in the assay with RXF 393 renal; 36.1 µM with SN12C renal. Besides, the TGI with U251 CNS is greater than 100 µM; in the assay with UACC-62 melanoma, 31.5 µM.

Consider `FC1CCN(C2(c3cccs3)CCCCC2)CC1`, for which the TGI in the assay on BT-549 breast, in the assay with HT29 colon, in the assay with NCI-H226 lung, in the assay on NCI/ADR-RES ovarian, in the assay on RXF 393 renal and with SN12C renal was greater than 100 µM in each case. Also, the TGI in the assay with U251 CNS and in the assay on UACC-62 melanoma was greater than 100 µM throughout.

On to `CCOC(=O)N(CC)c1c(C(F)(F)F)cc(-c2ccccc2)[nH]c1=O`, for which the TGI in the assay on BT-549 breast, with HT29 colon, in the assay on NCI-H226 lung, in the assay on NCI/ADR-RES ovarian, in the assay with RXF 393 renal and in the assay with SN12C renal was greater than 100 µM throughout. In addition, the TGI with U251 CNS and in the assay with UACC-62 melanoma was greater than 100 µM throughout.

Regarding `CC1(C)Oc2ccc(Cl)cc2C12CC2`, the TGI was found to be 68.5 µM in the assay with BT-549 breast; 34.7 µM in the assay on HT29 colon; 32.2 µM in the assay on NCI-H226 lung; 44 µM with NCI/ADR-RES ovarian; 30.2 µM in the assay on RXF 393 renal; 33.6 µM with SN12C renal. Also, the TGI was 29.4 µM in the assay on U251 CNS and greater than 100 µM in the assay on UACC-62 melanoma.
